Reference: US5236903A, “Polypeptide comprising repeated cell-adhesive core sequences” (Azuma; Ichiro, priority 1988, dated 1993)
Where two headings read alike, the source gives them in different places. Ends that are not written are not given here.

What was measured:
[1] = test system: B16-BL6 melanoma cells; test: Experimental metastasis to lung induced by intravenously injecting B16-BL6 melanoma cells; type: in vivo, C57BL/6 mice; conditions: for Antimetastatic effect compared with the control group (in words): 1,000 μg mixed with cells; for Antimetastatic effect on metastasis to lungs (in words): 500 μg mixed with cells, i.v.; for No. of instances of metastasis to lung mean ± SD: B16-BL6
[2] = test system: mouse B16-BL6 melanoma cells; test: Adhesion of B16-BL6 melanoma cells to substrate coated with polypeptide or fibronectin; type: cell-based; conditions: 37° C., 20 minutes; for Adhesiveness adhered cell No./substrate (SD): wells coated with 20 μg/ml polypeptide, 5 μg/ml fibronectin or 1% BSA, 2×10^4 cells
Text: The adhesiveness to target cells of the compound of the present invention was examined in accordance with a method reported by Saiki et al. […] Namely, a polypeptide of the present invention having a structure of ([…] and a molecular weight of approximately 5,000 prepared in the following Synthetic Example 1 and a comparative polypeptide, ([…], carrying a random sequence of the corresponding amino acids Arg, Gly and Asp and having a molecular weight of approximately 5,000 prepared in the following Synthetic Example 3 were employed. The adhesiveness of each compound was examined by using mouse B16-Bl6 melanoma cells as the target. First, microculture wells were preliminarily coated with 20 μg/ml of the polypeptide to be examined or 5 μg/ml of mouse fibronectin (obtained from Seikagaku Kogyo, Japan) which was used as a positive control. Next 0.05 ml/well of B16-BL6 melamona cells (2×10^4) labeled with a radioactive iodide [^125 I]IUdR was added thereto and the cells were cultured at 37° C. for 20 minutes. […] Subsequently the cells were collected and suspended in a serum-free MEM medium. The cell suspension thus obtained was used in the above examination. The unadsorbed cells in the well were washed away with PBS 4 times. Then the cells adsorbed by the well were dissolved in 0.1 ml of 0.1N NaOH. The number of adsorbed cells was determined by measuring the radioactivity of the dissolved cells.

[3] = test system: adhesion of B16-BL6 melanoma cells to fibronectin; test: Inhibition of B16-BL6 cell adhesion to fibronectin-coated substrate by peptides present during culture; type: cell-based, mouse
[4] = test system: B16-BL6 melanoma cells; conditions: for Metastasis of the cancer to the lungs (in words): 100 μg on 1st or 7th day single dose or 50 μg on 7th, 10th, 13th, 16th days, random polypeptide 100 μg on 7th day
Text: Furthermore, the antimetastatic effect of the compound of the present invention on a spontaneous metastasis model was examined. Namely, B16-BL6 cells were transplanted into the foot pads of C57BL/mice (each group having five animals). […] The transplanted cancer was removed on the 21st day and the mouse was anatomized 2 weeks later to examine the metastasis of the cancer into the lungs.

[5] = test system: platelet aggregation induced by B16-BL6 melanoma cells; conditions: 100 μg/ml added to heparinized PRP 7 minutes before the cells; FIGS. 2 and 3
Procedure: The blood of a C57BL/6 mouse was centrifuged at 160×g for 15 minutes to give platelet rich plasma (PRP). As a control, platelet poor plasma (PPP) obtained by centrifuging the blood at 1,000×g for 10 minutes was employed. […] After preincubation for 5 to 7 minutes, the mixture was added to a suspension of B16-BL6 cells in physiological saline (approximately 10^6 /ml) and stirred at 37° C. at 1,000 rpm. During this period, the aggregation of the platelets was monitored with a dual aggregometer (Model 440; Chrono-Log, USA). […] FIGS. 1 to 3 together show the results.

[6] = test system: erythrocytes, spleen and thymus cells
[7] = test system: Lewis lung cancer cells (3 LL); test: Experimental metastasis to lung induced by injecting Lewis lung cancer cells (3LL); type: in vivo, C57BL/6 mice; conditions: for No. of instances of metastasis to lung mean ± SD: 3LL
Procedure: Namely, portions of 2, 20 and 100 μg of the above compound were each mixed with 3×10^4 Lewis lung cancer cells (3 LL) and administered to a group of C57BL/6 mice in the same manner as the one described in the above (b). Thus the antimetastatic effect of this compound was examined.

[8] = test system: adhesion of B16-BL6 melanoma cells to fibronectin; test: Inhibition of B16-BL6 cell adhesion to fibronectin-coated substrate by peptides present during culture; type: cell-based, mouse; conditions: for Adhesiveness adhered cell No./substrate (SD) / Percentage in parentheses (inhibition of adhesion to fibronectin): fibronectin coating
Procedure: First, microculture wells were preliminarily coated with 20 μg/ml of the polypeptide to be examined or 5 μg/ml of mouse fibronectin (obtained from Seikagaku Kogyo, Japan) which was used as a positive control. Next 0.05 ml/well of B16-BL6 melamona cells (2×10^4) labeled with a radioactive iodide [^125 I]IUdR was added thereto and the cells were cultured at 37° C. for 20 minutes. The number of cells thus adsorbed by the culture wells was determined by measuring the radioactivity. 1% bovine serum albumin (BSA) was employed as a negative control. The B16-BL6 melanoma cells were labeled by culturing the cells to be labeled at the logarithmic growth phase for 24 hours in an MEM medium containing 5% of FBS and 0.3 μCi/ml of [^125 I]IUdR (200 mCi/mmol; obtained from New England Nuclear, Boston, Mass., USA).
The labeled cells were washed with physiological saline solution twice and suspended in 0.02% EDTA for 1 minute. Subsequently the cells were collected and suspended in a serum-free MEM medium. The cell suspension thus obtained was used in the above examination. The unadsorbed cells in the well were washed away with PBS 4 times. Then the cells adsorbed by the well were dissolved in 0.1 ml of 0.1N NaOH. The number of adsorbed cells was determined by measuring the radioactivity of the dissolved cells.

[9] = test system: B16-BL6 melanoma cells; test: Distribution and retention of [125I]IUdR-labeled B16-BL6 melanoma cells in organs
Procedure: B16-BL6 cells at the logarithmic growth phase were labeled with [^125 I]IUdR. […] The liver, kidneys, spleen and lungs of each animal were removed 30 minutes or 24 hours after the administration and the radioactivity in these organs was determined. Mice which received PBS were used as control animals.

[10] = 100 μg/animal, administration date 7
[11] = Test 1, simultaneous (mixed with 5×10^4 cells, i.v.), 500 μg, colonies counted after 14 days
[12] = incubated with 100 μg/ml peptide
[13] = incubated with 500 μg/ml peptide
[14] = 100 μg/animal, administration date 14
[15] = 100 μg/animal, administration date 20
[16] = 50 × 4 μg/animal, administration dates 7, 10, 13, 16
[17] = 500 μg/mouse with labeled cells i.v.

Compound: Poly(L-arginyl-glycyl-L-aspartic acid)hydrochloride [Poly(Arg-Gly-Asp)-1500]
- Antimetastatic effect compared with the control group (in words) ([1]; Test 2): remarkable antimetastatic effect
- Metastasis to lung mean ± SD ([1]; Test 2, simultaneous, 1000 μg): 14 ± 4

Compound: Fibronectin: mouse fibronectin (obtained from Seikagaku Kogyo, Japan) used as a positive control
- Adsorption of B16-BL6 melanoma cells to coated wells (in words) [2]: accelerated the adsorption
- Adhesiveness adhered cell No./substrate (SD) [2]: 5849 ± 513 adhered cell No./substrate

Compound: O=C(O)CN(CCN(CC(=O)O)CC(=O)O)CC(=O)O [EDTA, reference compound]
- Inhibition of cell-adhesiveness of fibronectin (in words) ([3]; 5 mM): inhibited

Compound: Copoly(L-arginine hydrochloride, glycine, L-aspartic acid) [Poly(Arg, Gly, Asp), reference compound]
- Metastasis of the cancer to the lungs (in words) [4]: did not suppress
- Number of metastatic cancer to lung (mm ± SD) [4, 10]: 158 ± 62 mm
- Size of transplanted cancer (mm ± SD), observation on 21st day [4, 10]: 11 ± 3 mm
- Antimetastatic effect on metastasis to lungs (in words) ([1]; Test 1): no such antimetastatic effect
- Metastasis to lung mean ± SD [1, 11]: 65 ± 4
- Suppression of platelet aggregation induced by B16-BL6 cells (in words) [5]: scarcely any suppression capability
- Adsorption of B16-BL6 melanoma cells to coated wells (in words) [2]: scarcely any adsorption
- Adhesiveness adhered cell No./substrate (SD) [2]: 1750 ± 395 adhered cell No./substrate

Compound: Poly(Tyr-Ile-Gly-Ser-Arg)HCl (YIGSR; not fully specified; printed as Poly(Tyr-Ile-Gly-Ser-Arg)HCl; also: HCl salt)
- No. of instances of metastasis to lung mean ± SD ([1]; 5 μg/animal): 81 ± 9
- No. of instances of metastasis to lung mean ± SD ([1]; 20 μg/animal): 43 ± 13
- No. of instances of metastasis to lung mean ± SD ([1]; 100 μg/animal): 19 ± 9
- Cytotoxicity on erythrocytes, spleen and thymus cells [6]: neither any cytotoxicity
- No. of instances of metastasis to lung mean ± SD ([7]; 100 μg/animal): 14 ± 11
- Antimetastatic activity relative to the original pentapeptide ([7]; mouse, in vivo): ~10 times
- Antimetastatic effect on metastasis to the lungs (in words) ([7]; polypeptide 2, 20 and 100 μg, pentapeptide 100 μg, mixed with cancer cells): remarkably inhibited

Compound: Cl.N=C(N)NCCC[C@H](N)C(=O)NCC(=O)N[C@@H](CC(=O)O)C(=O)O [Arg-Gly-Asp, L-arginylglycylaspartate hydrochloride, reference compound]
- Amount needed relative to that of the polypeptide compound of the invention ([1]; Test 1): approximately 6 times
- Antimetastatic effect on metastasis to lungs (in words) ([1]; Test 1): no such antimetastatic effect
- Metastasis to lung mean ± SD [1, 11]: 46 ± 14
- Metastasis to lung mean ± SD ([1]; Test 1, simultaneous, 3000 μg, 14 days): 18 ± 24
- Amount needed to achieve an antimetastatic effect comparable to that of Poly(Arg-Gly-Asp) ([1]; Test 1, versus 500 μg Poly(Arg-Gly-Asp)): 3,000 μg
- Inhibition of adhesion of fibronectin to cells (in words) ([8]; 100 or 500 μg/ml peptide (His-Gly-Gly 500 μg/ml), hydrochloride): dose-dependently inhibited
- Adhesiveness adhered cell No./substrate (SD) [8, 12]: 5320 ± 52 adhered cell No./substrate
- Adhesiveness adhered cell No./substrate (SD) [8, 13]: 3708 ± 265 adhered cell No./substrate
- Percentage in parentheses (inhibition of adhesion to fibronectin) [8, 13]: 37%

Compound: Poly(L-arginylglycyl-L-aspartate hydrochloride) [Poly(Arg-Gly-Asp)]
- Metastasis of the cancer to the lungs (in words) [4]: remarkably reduced
- Number of metastatic cancer to lung (mm ± SD) ([4]; 100 μg/animal, administration date 1): 24 ± 17 mm
- Size of transplanted cancer (mm ± SD), observation on 21st day ([4]; 100 μg/animal, administration date 1, topical): 8 ± 4 mm
- Number of metastatic cancer to lung (mm ± SD) [4, 10]: 29 ± 22 mm
- Size of transplanted cancer (mm ± SD), observation on 21st day [4, 10]: 9 ± 3 mm
- Number of metastatic cancer to lung (mm ± SD) [4, 14]: 120 ± 29 mm
- Size of transplanted cancer (mm ± SD), observation on 21st day [4, 14]: 10 ± 4 mm
- Number of metastatic cancer to lung (mm ± SD) [4, 15]: 131 ± 79 mm
- Size of transplanted cancer (mm ± SD), observation on 21st day [4, 15]: 8 ± 3 mm
- Number of metastatic cancer to lung (mm ± SD) [4, 16]: 26 ± 29 mm
- Size of transplanted cancer (mm ± SD), observation on 21st day [4, 16]: 8 ± 3 mm
- Growth of the transplanted cancer per se (in words) ([4]; same regimens): could not be suppressed
- Antimetastatic effect on metastasis to lungs (in words) ([1]; Test 1): remarkably inhibited
- Metastasis to lung mean ± SD [1, 11]: 23 ± 3
- Antimetastatic effect compared with the control group (in words) ([1]; Test 2): remarkable antimetastatic effect
- Metastasis to lung mean ± SD ([1]; Test 2, separate (i.v. 5 minutes after the cells), 1000 μg): 16 ± 4
- Metastasis to lung mean ± SD ([1]; Test 2, simultaneous, 1000 μg): 6 ± 4
- Antimetastatic effect (in words) ([1]; not mixed, i.v. to mice given B16-BL6 cells 5 minutes before): high antimetastatic effect
- Adhesiveness adhered cell No./substrate (SD) [8, 12]: 3687 ± 229 adhered cell No./substrate
- Adhesiveness adhered cell No./substrate (SD) [8, 13]: 3715 ± 231 adhered cell No./substrate
- Percentage in parentheses (inhibition of adhesion to fibronectin) [8, 13]: 36%
- Suppression of platelet aggregation induced by B16-BL6 cells (in words) [5]: completely suppressed
- Inhibition of adhesion of fibronectin to cells (in words) ([3]; 100 or 500 μg/ml peptide (His-Gly-Gly 500 μg/ml)): inhibited
- Percentage in parentheses (inhibition of adhesion to fibronectin) ([3]; fibronectin coating, incubated with 100 μg/ml peptide): 37%
- Adsorption of B16-BL6 melanoma cells to coated wells (in words) [2]: accelerated the adsorption
- Adhesiveness adhered cell No./substrate (SD) [2]: 7967 ± 910 adhered cell No./substrate
- No. of instances of metastasis to lung mean ± SD ([7]; 500 μg/animal): 34 ± 7
- Radioactivity in other organs including blood versus control (in words) ([9]; 500 μg/mouse): no significant difference
- Radioactivity of the lungs versus control group (in words) ([9]; 500 μg/mouse): markedly lower
- Radioactivity (cpm ± SD), Lung ([9]; 500 μg/mouse with 2×10^4 labeled cells i.v., average of 3 animals): 1121 ± 281 cpm
- Radioactivity (cpm ± SD), Blood (1 ml) [9, 17]: 304 ± 94 cpm
- Radioactivity (cpm ± SD), Kidney [9, 17]: 73 ± 19 cpm
- Radioactivity (cpm ± SD), Liver [9, 17]: 195 ± 42 cpm
- Radioactivity (cpm ± SD), Spleen [9, 17]: 59 ± 7 cpm
- Percentage relative to the administered radioactivity, Lung ([9]; administered 15308 ± 1605 cpm/2 × 10^4 cells): 7.3%
- Percentage relative to the administered radioactivity, Blood (1 ml) ([9]; mouse, in vivo): 2.0%
- Percentage relative to the administered radioactivity, Kidney ([9]; mouse, in vivo): 0.5%
- Percentage relative to the administered radioactivity, Liver ([9]; mouse, in vivo): 1.3%
- Percentage relative to the administered radioactivity, Spleen ([9]; mouse, in vivo): 0.4%
